Measured values reported in publication PMC11574862 (The Journal of General Physiology, 2024).
Several values for one entry are separate records, joined by “and”; a condition that tells them apart may be missing. Equal entries are not always repeated.

How the values were obtained:
Assay type in all cases: binding
[1] = biological target: T1, VC0430 (VcGluP) wildtype (Vibrio cholerae, UniProt Q9KUT5)
[2] = biological target: T1, VC0430 (VcGluP) wildtype; assay: biochemical
[3] = biological target: VcGluP Q93A (Vibrio cholerae, UniProt Q9KUT5, Q93A)
[4] = biological target: VcGluP Y200A (Vibrio cholerae, UniProt Q9KUT5, Y200A)
[5] = biological target: VcGluP E125A (Vibrio cholerae, UniProt Q9KUT5, E125A)
[6] = biological target: VcGluP S75A (Vibrio cholerae, UniProt Q9KUT5, S75A)
[7] = biological target: VcGluP Y45A (Vibrio cholerae, UniProt Q9KUT5, Y45A)
[8] = biological target: VcGluP M201A (Vibrio cholerae, UniProt Q9KUT5, M201A)

N[C@H](CCC(=O)O)C(=O)O [D-glutamate]
Average Tm [1]: 58.65 °C
Tm Replicate 1 [1]: 58.65 °C
Tm Replicate 2 [1]: 58.65 °C
Tm Replicate 3 [1]: 58.65 °C
Kd [2]: 24.5 ± 10.6 µM

NC(=O)CC[C@H](N)C(=O)O [L-glutamine]
Tm Replicate 2 [1]: 50.70 °C and 53.68 °C and 55.67 °C and 50.71 °C
Kd [2]: 11 ± 2 µM

O=C(O)[C@@H]1CCC(O)=N1 [L-pyroglutamate]
effect on VcGluP's stability (DSF) [1]: enhanced VcGluP’s stability in a dose-dependent manner
Kd [2]: 50 ± 16 µM

NC(=O)CCC(N)C(=O)O (stereo in doubt) [D-glutamine]
Average Tm [1]: 46.40 °C and 47.06 °C and 48.72 °C
Tm Replicate 1 [1]: 46.73 °C and 46.72 °C and 48.72 °C
Tm Replicate 2 [1]: 45.74 °C and 47.72 °C and 48.72 °C
Tm Replicate 3 [1]: 46.73 °C (2×) and 48.72 °C
fluorescence enhancement in titration (Kd could not be determined) [2]: lack of fluorescence enhancement

N[C@@H](CC(=O)O)C(=O)O [L-aspartate]
Average Tm [1]: 47.06 °C
Tm Replicate 1 [1]: 47.72 °C
Tm Replicate 2 [1]: 45.74 °C
Tm Replicate 3 [1]: 47.73 °C
change in VC0430's Tm (Tm increase) [1]: no change

O=C(O)CCC(=O)C(=O)O [α-ketoglutarate]
Average Tm [1]: 47.39 °C
Tm Replicate 1 [1]: 50.71 °C
Tm Replicate 2 [1]: 45.74 °C
Tm Replicate 3 [1]: 45.74 °C
change in VC0430's Tm (Tm increase) [1]: no change

O=C(O)CCCCC(=O)O [adipate]
Average Tm [1]: 44.74 °C
Tm Replicate 1 [1]: 43.75 °C
Tm Replicate 2 [1]: 45.74 °C
Tm Replicate 3 [1]: 44.74 °C
change in VC0430's Tm (Tm increase) [1]: no change

NCCCC[C@H](N)C(=O)O [L-lysine]
Average Tm [1]: 44.41 °C
Tm Replicate 1 [1]: 43.75 °C
Tm Replicate 2 [1]: 44.74 °C
Tm Replicate 3 [1]: 44.74 °C
change in VC0430's Tm (Tm increase) [1]: no change

N[C@@H](CCC(=O)O)C(=O)O [L-glutamate]
ligand concentration needed to saturate fluorescence enhancement [3]: a higher concentration was required
ligand concentration giving maximum fluorescence enhancement [4]: ≤ 50 µM
ligand concentration giving maximum fluorescence enhancement [5]: ≤ 50 µM
ligand concentration giving maximum fluorescence enhancement [6]: ≤ 50 µM
ligand concentration giving maximum fluorescence enhancement [7]: ≤ 50 µM
Kd [2]: 0.065 ± 0.031 µM
ligand concentration giving maximum fluorescence enhancement [8]: ≤ 50 µM
